Assay results published in patent US7538194B2, “Genes encoding several poly (ADP-ribose) glycohydrolase (PARG) enzymes, the proteins and fragments thereof, and antibodies immunoreactive therewith” (University of Kentucky Research Foundation, priority 1998, dated 2009).

Biological target: T1, bPARG (construct C, 75-kDa carboxyl-terminal region) expressed in E. coli (Bos taurus, UniProt O02776)
T1 construct: construct C contained only the 75-kDa carboxyl-terminal region of the PARG, which predicted a fusion protein of approximately 79 kDa; made in house; host or cells: E. coli (pTrcHis expression plasmid; supernatant of crude cell extract)
Assay: PARG activity, thin layer chromatography assay measuring release of [32P]ADP-ribose from [32P]ADP-ribose polymers
Type: biochemical, bovine
Settings: 167 μm inhibitor; extract of E. coli strain containing construct C, 5 h after induction by IPTG (FIG. 6, bar 6 vs bar 5)
Experimental: For expression experiments, bacterial cultures were grown at 37° C. in 1% Bacto-tryptone, 0.5% yeast extract, and 0.5% NaCl to a density of approximately 0.6 A600/ml and were induced with 1 mM isopropyl-β-D-thiogalactoside (IPTG). Cells were-collected by centrifugation, and crude extracts were prepared by sonication (10 A600/ml) in 10 mM sodium phosphate buffer, pH 7.2, 150 mM NaCl, 0.5 mg/ml lysozyme, 0.1 mg/ml phenylmethylsulfonyl fluoride, 1 mM EDTA, 0.7 μg/ml pepstatin A, 0.5 μg/ml leupeptin, and 1 μg/ml aprotinin. Cell extracts were subjected to centrifugation, and the supernatant fraction was used for assay. PARG assay conditions were as described previously (52). Following incubations, portions of reaction mixture were analyzed by thin layer chromatography or subjected to anion exchange HPLC.
Using a thin layer chromatography assay that measures release of [^32P]ADP-ribose from [^32P]ADP-ribose polymers (53), PARG activity was detected in extracts from cells transformed by each of the constructs. […] Reaction mixtures contained approximately 15,000 cpm of [^32P]ADP-ribose polymers, and the cpm shown represent ADP-ribose released from the ADP-ribose polymers. […] No activity was detected in cells transformed with the empty vector, but activity was detectable without induction by IPTG, indicating a leaky lac promoter.

T1 sequence (O02776 322-977 limits assumed): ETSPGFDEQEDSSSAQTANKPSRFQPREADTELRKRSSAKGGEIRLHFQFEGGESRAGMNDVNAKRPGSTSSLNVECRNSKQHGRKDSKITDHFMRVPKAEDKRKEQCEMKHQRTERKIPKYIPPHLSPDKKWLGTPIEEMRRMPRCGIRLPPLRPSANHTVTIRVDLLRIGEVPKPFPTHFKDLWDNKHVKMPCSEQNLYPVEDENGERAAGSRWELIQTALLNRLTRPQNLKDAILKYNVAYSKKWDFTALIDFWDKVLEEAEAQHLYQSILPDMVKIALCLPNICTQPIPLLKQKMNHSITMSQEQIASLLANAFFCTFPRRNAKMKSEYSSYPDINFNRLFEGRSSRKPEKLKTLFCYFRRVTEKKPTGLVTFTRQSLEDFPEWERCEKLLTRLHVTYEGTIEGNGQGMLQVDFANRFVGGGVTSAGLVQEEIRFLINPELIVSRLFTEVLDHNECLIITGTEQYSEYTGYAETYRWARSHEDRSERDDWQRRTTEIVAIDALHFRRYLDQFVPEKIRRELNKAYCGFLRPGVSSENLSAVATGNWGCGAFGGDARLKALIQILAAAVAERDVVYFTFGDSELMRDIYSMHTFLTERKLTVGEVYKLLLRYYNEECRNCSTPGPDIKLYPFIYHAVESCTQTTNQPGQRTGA

Nc1ncnc2c1ncn2[C@@H]1O[C@H](COP(=O)(O)OP(=O)(O)OC[C@H]2NC[C@H](O)[C@@H]2O)[C@@H](O)[C@H]1O [ADP-hydroxymethylpyrrolidine diol]
enzymatic activity (ADP-ribose released from ADP-ribose polymers): strongly inhibited
